Test results from ChEMBL document CHEMBL4368877, “Discovery of potent pyruvate dehydrogenase kinase inhibitors and evaluation of their anti-lung cancer activity under hypoxia” (Medchemcomm, 2018).
Calls of active or inactive are those of the source. The rule behind the calls is not given here.

What was measured:
[1] = target: [Pyruvate dehydrogenase (acetyl-transferring)] kinase isozyme 2, mitochondrial (Homo sapiens, UniProt Q15119); experiment: Inhibition of PDK2 (unknown origin) using PDC E1 as substrate measured after 30 mins by kinase-glo assay
[2] = target: [Pyruvate dehydrogenase (acetyl-transferring)] kinase isozyme 3, mitochondrial (Homo sapiens, UniProt Q15120); experiment: Inhibition of PDK3 (unknown origin) using PDC E1 as substrate measured after 30 mins by kinase-glo assay
Sequence of [Pyruvate dehydrogenase (acetyl-transferring)] kinase isozyme 3, mitochondrial (Q15120 whole entry): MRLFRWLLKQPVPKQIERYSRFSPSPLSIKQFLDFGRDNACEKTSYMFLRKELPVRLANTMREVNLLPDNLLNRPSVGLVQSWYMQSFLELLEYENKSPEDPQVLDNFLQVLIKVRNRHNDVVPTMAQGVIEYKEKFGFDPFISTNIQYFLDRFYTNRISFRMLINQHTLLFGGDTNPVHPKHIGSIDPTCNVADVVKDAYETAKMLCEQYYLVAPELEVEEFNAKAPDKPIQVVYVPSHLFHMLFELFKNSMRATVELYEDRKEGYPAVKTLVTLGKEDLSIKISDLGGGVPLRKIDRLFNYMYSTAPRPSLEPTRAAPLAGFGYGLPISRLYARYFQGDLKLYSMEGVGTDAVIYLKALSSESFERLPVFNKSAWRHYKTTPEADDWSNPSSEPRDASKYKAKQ

[3] = target: [Pyruvate dehydrogenase (acetyl-transferring)] kinase isozyme 4, mitochondrial (Homo sapiens, UniProt Q16654); experiment: Inhibition of PDK4 (unknown origin) using PDC E1 as substrate measured after 30 mins by kinase-glo assay
Sequence of [Pyruvate dehydrogenase (acetyl-transferring)] kinase isozyme 4, mitochondrial (Q16654 whole entry): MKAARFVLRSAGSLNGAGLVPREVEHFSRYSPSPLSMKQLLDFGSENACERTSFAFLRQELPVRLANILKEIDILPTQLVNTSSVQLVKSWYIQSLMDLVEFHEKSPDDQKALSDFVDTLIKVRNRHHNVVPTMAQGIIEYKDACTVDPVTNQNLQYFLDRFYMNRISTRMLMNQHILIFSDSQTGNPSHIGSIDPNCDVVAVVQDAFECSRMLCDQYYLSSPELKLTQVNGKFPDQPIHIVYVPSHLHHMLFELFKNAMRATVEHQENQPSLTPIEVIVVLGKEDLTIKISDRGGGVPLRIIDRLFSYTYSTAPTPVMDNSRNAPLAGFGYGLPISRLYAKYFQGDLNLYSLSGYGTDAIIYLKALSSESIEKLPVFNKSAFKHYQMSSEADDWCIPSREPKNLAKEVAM

[4] = test system: NCI-H1975; experiment: Cytotoxicity against human NCI-H1975 cells assessed as reduction in cell proliferation at 1 to 10 uM after 72 hrs under normoxic condition by MTT assay; type: cell-based; conditions: nci-h1975, 72 h
[5] = target: [Pyruvate dehydrogenase (acetyl-transferring)] kinase isozyme 1, mitochondrial (Homo sapiens, UniProt Q15118); experiment: Inhibition of PDK1 (unknown origin) using PDC E1 as substrate measured after 30 mins by kinase-glo assay
Sequence of [Pyruvate dehydrogenase (acetyl-transferring)] kinase isozyme 1, mitochondrial (Q15118 whole entry): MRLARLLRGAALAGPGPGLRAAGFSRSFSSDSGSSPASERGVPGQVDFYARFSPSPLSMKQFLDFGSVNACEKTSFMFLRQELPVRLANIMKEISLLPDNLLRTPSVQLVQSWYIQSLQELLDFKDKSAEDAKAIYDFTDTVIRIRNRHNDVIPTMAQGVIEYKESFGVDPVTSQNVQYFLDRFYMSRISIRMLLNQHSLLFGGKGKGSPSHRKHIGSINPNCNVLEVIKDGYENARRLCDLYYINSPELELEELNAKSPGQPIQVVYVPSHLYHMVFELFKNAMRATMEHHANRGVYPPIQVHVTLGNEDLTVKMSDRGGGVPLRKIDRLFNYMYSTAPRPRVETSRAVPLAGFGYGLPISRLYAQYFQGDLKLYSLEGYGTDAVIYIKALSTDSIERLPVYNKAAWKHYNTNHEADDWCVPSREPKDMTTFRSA

[6] = test system: NCI-H1975; experiment: Cytotoxicity against human NCI-H1975 cells assessed as reduction in cell proliferation after 72 hrs under hypoxic condition by MTT assay; conditions: NCI-H1975, 72 h
[7] = target: Pyruvate dehydrogenase kinase (Homo sapiens) (UniProt Q15119+Q15120+Q16654+Q15118); experiment: Inhibition of PDK in human NCI-H1975 cells assessed as reduction in PDC phosphorylation at 10 uM measured after 12 hrs under hypoxic condition by Western blot analysis; type: cell-based

SMILES	IC50 [1] [µM]	IC50 [2] [µM]	IC50 [3] [µM]	IC50 [5] [µM]	Activity [4]	EC50 [6] [µM]	inhibition [7]
Cc1cnc(Cl)nc1-c1ccc(N(Cc2ccc(CNC(=O)C(F)F)cc2)C(=O)c2ccc(O)cc2O)cc1	–	–	–	–	Non-Toxic	–	–
O=C(c1ccccc1)C(Cl)Cl	–	–	–	–	–	–	Active

More lines, main results first:

IC50 [1] [µM]	IC50 [2] [µM]	IC50 [3] [µM]	IC50 [5] [µM]	SMILES	Activity [4]	EC50 [6] [µM]	inhibition [7]
1.5	3.9	6.8	–	OCCOc1ccc(CN2CCN(Cc3ccc(F)c(F)c3)[C@@H](CCO)C2)cc1	Non-Toxic	–	–
2.5	7.8	12.3	1.26	CN(C)CCCn1ccnc1[C@H]1CCCN(C(=O)c2ccc3cc[nH]c3c2)C1	Non-Toxic	–	–
2.6	4.8	8.7	0.62	O=C(NCc1ccccc1-n1cccn1)c1cc(-c2ccccc2O)n[nH]1	Non-Toxic	4.28	–
